# Earlier results as cited in US20230332232A1, “COMPOSITIONS AND METHODS FOR DIAGNOSING AND TREATING A DYSTONIA” (Duke University, priority 2020, published 2023).
# Tests used:
# ΔE Torsin1a = ΔE Torsin1a abnormal punctate pattern; cited from earlier work
# [1] = system: DYT1 patient-derived fibroblasts; conditions: cited from earlier work
compound,measurement,setting,value
"O=C(O)CCCc1ccccc1 [PBA, phenylbutyric acid]",punctate pathology,ΔE Torsin1a,significantly reduced punctate pathology
same,indicators of UPR activation,[1],reduces indicators of UPR activation
